# Source: ChEMBL document CHEMBL3507680, “University of Dundee, Gates Library screen for HepG2 cell viability”
# Assay: Human HepG2 cell viability assay in 384 well format
# Type: toxicity, cell-based
# Parameters: dose 125 nL, time 70.5 hour; concentration not given beside the values
# Conditions: HepG2 cells, read-out: Inhibition
row,SMILES,cytotoxicity at 70.5 h
1,CC(C(=O)N1CCCCCC1)N1CCN(c2nccs2)CC1 (stereo not given),19.7%
2,CC(C(=O)N1CCCCC1)N1CCN(c2nccs2)CC1 (stereo not given),2.12%
3,CS(=O)(=O)Cc1ccc(C(=O)Nc2ccc3c(c2)C(=O)NC3)cc1,-6.71%
4,CN(C)Cc1ccc(N2CCN(CCOCC(F)(F)F)CC2)nc1,17.7%
5,CC(C)OCCN1CCN(c2ccc(Cl)cn2)CC1,-6.76%
6,O=C1C(n2nnc(-c3cccs3)n2)CCN1CC(F)(F)F (stereo not given),-7.6%
7,CCCOc1ccc(Cl)cc1C(=O)N1CCC(n2cncn2)CC1,17.2%
8,COc1ccc(C(NCc2cccc(C#N)c2)C2CC2)cc1 (stereo not given),-2.12%
9,COC(=O)c1cccc(C(=O)N2CCN(C(=O)N(C)C)CC2(C)C)c1,16.9%
10,CN(C)C(=O)c1ccc(NCCNc2ccc3ccccc3n2)nc1,45.4%
11,Cc1cnn(CC(C)NCCc2cccs2)c1 (stereo not given),23.7%
12,CS(=O)(=O)NCCc1cccc2cccnc12,25.3%
13,Cc1cc(C(C)NC(=O)c2cnc3onc(C)c3c2)c(C)o1 (stereo not given),-5.78%
14,COC(=O)c1cccc(S(=O)(=O)NC(=O)CC2CCCC2)c1,22.5%
15,CC(C)COCCCNC(=O)NC(C)c1ccc(-n2cncn2)cc1 (stereo not given),-3.59%
16,CC(C)C(Sc1ccccc1)C(=O)N(C)Cc1nnc2n1CCC2 (stereo not given),25.6%
17,CN(C)CC1CN(Cc2cc(Cl)cc3cccnc23)CCO1 (stereo not given),-9.09%
18,CC(=O)c1cc(C(=O)NC2(c3ccc(Br)cc3)CC2)n(C)c1,-3.42%
19,CN(C)CC1CN(Cc2c(Cl)ccc3cccnc23)CCO1 (stereo not given),-4.72%
20,Cc1ccc(CN(C)C)cc1NC(=O)C1CC1,-9.96%
21,CCc1cnc(N2CCN(Cc3ccncc3)CC2)s1,-3.17%
22,COc1ccccc1CNCc1nn(-c2ccccc2)c2c1CCC2,0.28%
23,CC(=O)c1ccc(S(=O)(=O)N2CCC(c3n[nH]c(C)n3)CC2)cc1,24.3%

row,SMILES,cytotoxicity at 70.5 h
1,CS(=O)(=O)NCCCSCc1cccc2cccnc12,-9.28%
2,Cc1ccc(C(=O)O)cc1NC(=O)C1CC=CC1,22.9%
3,Brc1ccc(C2(CNCc3cc[nH]c3)CCOCC2)cc1,-0.56%
4,N#CCCCn1nnnc1Cc1ccc(Br)cc1,-13.9%
5,Cc1cc(C)n(C2CN(Cc3ccccn3)C2)n1,-9.82%
6,COCc1noc(CCC(=O)c2ccc3c(c2)OCCO3)n1,-19.1%
7,Cc1csc(N2CCN(Cc3cnc4c(c3)c(C)nn4C)CC2)n1,-24.9%
8,Cc1cc(CN2CCN(Cc3cnc4c(c3)c(C)nn4C)CC2)on1,-6.72%
9,Cn1cc(NC(=O)Nc2ccc3c(c2)OCO3)cn1,-8.14%
10,O=C(CCn1cncn1)NC1(c2cccc(Br)c2)CCC1,-2.65%
11,NS(=O)(=O)CCNC(=O)c1ccc(-c2ccc(F)cc2)cc1F,-6.9%
12,O=C(CCCn1cncn1)NC1(c2ccccc2)CCC1,-4.44%
13,CC(C)OCCOCc1cccc(NC(=O)NCc2ccccn2)c1,-8.39%
14,COc1ccc(-c2nc(CN3CC(n4nc(C)cc4C)C3)no2)cc1,-5.57%
15,N#Cc1ccc(CNCC(C(=O)N2CCOCC2)c2ccccc2)cc1 (stereo not given),-3%
16,CN(C(=O)c1cccc(C(=O)NS(C)(=O)=O)c1)c1ccccc1,-8.09%
17,CC(C)C1CN(C(=O)c2ccc(N3CCCC3)nc2)CCS1 (stereo not given),-8.6%
18,O=C(NC1(c2cccc(F)c2)CCOCC1)c1ccoc1,-6.8%
19,CCc1nc(C2CCCN2Cc2nc(CCOC)no2)no1 (stereo not given),-9.31%
20,CC(C)C(C(=O)N1CCCN(Cc2cnn(C)c2)CC1)n1cncn1 (stereo not given),-7.59%
21,COCCC(=O)N1CCc2cc(Cl)cc(Cl)c2C1,-2.57%
22,CN(Cc1cccc(F)c1)C(=O)CN1CCCC1CCc1ccccc1 (stereo not given),-4.07%
23,CC(C)OCCOCc1cccc(NC(=O)NCCn2ccnc2)c1,-8.94%

row,SMILES,cytotoxicity at 70.5 h
1,COc1cccc(CN(C)C(=O)CN2CC(n3nc(C)cc3C)C2)c1,-1.82%
2,COc1cccc(CN(C)C(=O)Nc2ccc3c(c2)OCCO3)c1,12.4%
3,CCc1ccc(CNC(=O)NC(C)CN2CCOCC2)s1 (stereo not given),6.35%
4,CC(CN1CCOCC1)NC(=O)N(C)Cc1ccc(Cl)s1 (stereo not given),-2.73%
5,CC(=O)N1CCCN(Cc2csc(-c3ncccn3)n2)CC1,-7.01%
6,CCN(CC)C(=O)c1ccc(NC(=O)CNc2ccc(F)cc2Cl)cc1,-6.34%
7,Cc1cc(=O)n2ncnc2n1CC(O)c1cc(F)ccc1F (stereo not given),-11.1%
8,O=C(Cc1ccccc1F)N1CCN(C(=O)c2ccoc2)CC1,-1.84%
9,COc1ccc(-c2nnc(SC(C)C(=O)NCC(C)C)[nH]2)c(OC)c1 (stereo not given),56.9%
10,COc1ccc(-c2nnc(SC(C)C(=O)NC3CC3)[nH]2)c(OC)c1 (stereo not given),30.9%
11,O=C(c1cc[nH]n1)N1CCCC1C1CCN(Cc2ccccc2)CC1 (stereo not given),-3.3%
12,O=C(CCN1CCC(C(=O)c2cc(F)ccc2F)CC1)NC1CC1,-0.804%
13,Cc1c(C(=O)NC(C)C(C)C)nnn1-c1cccc2c1CCN(C)C2 (stereo not given),5.93%
14,Cc1cc(C)n(C2CN(CC(=O)N(C)Cc3ccc(C)o3)C2)n1,-9.43%
15,CCS(=O)(=O)N1CCc2c(cccc2NC(=O)NCCOC)C1,-1.31%
16,Cc1ccccc1CS(=O)(=O)CC(=O)NCc1ccccc1F,4.2%
17,COc1ccc(NC(=O)C(c2cccc(F)c2)N2CCOCC2)cc1 (stereo not given),-8.8%
18,CCCOCC(=O)NC1CCc2nc(C)cn2C1 (stereo not given),-2.67%
19,CCOCCC(=O)Nc1cccc(Oc2ccccn2)c1,23.9%
20,Cc1n[nH]c(C2CN(C(=O)c3ccco3)CCO2)n1 (stereo not given),-4.63%
21,COc1cccc(CN(C)C(=O)CSc2ccc3c(c2)OCCO3)c1,-4.28%
22,CN(C)C(=O)Cc1nc(CN2CCCCC2Cn2cccn2)cs1 (stereo not given),37%
23,CCN(Cc1ccco1)C(=O)c1cc(OC)c2c(c1)OCCO2,5.2%

row,SMILES,cytotoxicity at 70.5 h
1,CCOCCOC(C)C(=O)NCc1cn2cc(Br)ccc2n1 (stereo not given),-1.73%
2,CCN(C(=O)COC)C(c1cccnc1)c1cc(C)cc(C)c1 (stereo not given),13.8%
3,CCN(C(=O)COC)C(c1cccnc1)c1ccc2c(c1)CCO2 (stereo not given),-2.44%
4,c1cnnc(N2CCCC2CNCc2nc3ccccc3o2)c1 (stereo not given),-9.74%
5,Cc1ccc(F)cc1S(=O)(=O)N(C)CC(N)=O,-11.9%
6,Cc1nc(CCNC(=O)NC2CCN(c3ncccn3)CC2)cs1,-8.38%
7,CN(CC(N)=O)S(=O)(=O)c1ccc(F)cc1Cl,-11.4%
8,CC(C)Oc1ncc(C(=O)N2CCC(NC(=O)C3CC3)CC2)cc1Cl,7%
9,CCN(CC)C1CCN(C(=O)NCc2c(C)noc2C)CC1,-7.03%
10,COC(=O)CCNC(=O)c1ccoc1CN1c2ccccc2CC1C (stereo not given),-1.15%
11,O=C(NCCC1CCCO1)c1ccccc1N1CCOCC1 (stereo not given),1.49%
12,Cc1ccc(N2CCCN(C(=O)c3cc(Cl)c[nH]3)CC2)nn1,-8.66%
13,Cc1nnc2n1CCN(C(=O)c1cn(-c3ccccc3Cl)nn1)C2,-9.21%
14,Cc1cccc(N2CCN(C(=O)CN3CCN(CCO)CC3)CC2)c1,0.659%
15,CN1CCCc2cc(NC(=O)N3CCOC(C(N)=O)C3)ccc21 (stereo not given),3.77%
16,Cc1cnc(C(=O)N2CCCN(Cc3csc(C)n3)CC2)cn1,-5.72%
17,Cc1ccc(OCC(=O)NCc2ccccc2F)nc1,-2.31%
18,CS(=O)(=O)c1ccc(OCCNCc2ccc(F)cc2F)cc1,0.183%
19,CCN(CC)c1ccc(NS(=O)(=O)c2cnn(C)c2)cn1,-2.05%
20,CCCNC(=O)COc1ccc(C)cn1,-0.369%
21,CC(C)Oc1cccc(C(O)CNC(=O)CCc2ccncc2)c1 (stereo not given),-5.8%
22,Cc1[nH]ccc1C(=O)Nc1cccc(CN2CCC(CO)CC2)c1,27.9%
23,Cc1[nH]ccc1C(=O)Nc1cccc(CN2CCC(O)CC2)c1,1.4%

row,SMILES,cytotoxicity at 70.5 h
1,NCC(c1ccccc1)N1CCc2sccc2C1 (stereo not given),5.18%
2,O=C(Nc1ccccn1)C1CC(=O)N(Cc2ccccn2)C1 (stereo not given),16.8%
3,O=C(NC1CCC1)c1c2c(N3CCCC3)ncnc2n2ccccc12,-2.42%
4,CC(=O)N1CCC2(CCN(C(=O)c3ccc(F)c(C(F)(F)F)c3)CC2)C1,-6.93%
5,O=C(c1ccccn1)N1CC[C@@H](N2CCOCC2)[C@@H]1Cc1ccccc1,-10.4%
6,O=C(c1cnccn1)N1CC[C@H]2C[C@@H](c3ccncn3)O[C@@H]2C1,-11.7%
7,O=C(c1ccoc1)N1CC[C@H]2C[C@@H](c3ccncn3)O[C@@H]2C1,4.08%
8,O=C(c1ccsc1)N1CC[C@@H](N2CCOCC2)[C@@H]1Cc1ccccc1,-11.8%
9,Cc1ccc(CN2CCC3(CC(=O)N(c4ccc5c(c4)OCO5)C3)C2)o1 (stereo not given),-6.86%
10,Cc1cc(C(=O)N2CC[C@H]3C[C@H](c4ccncn4)O[C@@H]3C2)c(C)[nH]1,-4.78%
11,CC(=O)N1CCC2(CC1)CCN(C(=O)c1ccc(F)c(C(F)(F)F)c1)C2,-7.91%
12,CC(=O)N1CCC2(CCN(Cc3ccc(Cl)c(C(F)(F)F)c3)CC2)C1,-11.6%
13,CC(=O)N1CCC2(CCN(C(=O)c3ccc(F)c(C(F)(F)F)c3)C2)C1 (stereo not given),-12.8%
14,COc1cccc(-c2c[nH]c(C3CCCN3)n2)c1 (stereo not given),-4.68%
15,COc1ccccc1-c1c[nH]c(C2CCCN2)n1 (stereo not given),-7.74%
16,O=C(NCc1ccco1)[C@H]1CC[C@@H]2[C@@H](CCN2c2ncc(F)cn2)O1,-10.2%
17,CN(C)S(=O)(=O)N1CCC[C@]2(C[C@@H](Oc3ncccc3F)CO2)C1,-11.4%
18,COCC1CN(Cc2cnn(C)c2)Cc2nn(C)cc21 (stereo not given),-11.4%
19,O=S(=O)(C1CC1)N1CC[C@]2(C[C@@H](Oc3ncccc3F)CO2)C1,6.64%
20,CN(C)S(=O)(=O)N1CC[C@]2(C[C@@H](Oc3cccnc3)CO2)C1,-5.96%
21,CCOCC1CN(Cc2ccncc2)Cc2nn(C)cc21 (stereo not given),-7.15%
22,O=C1CO[C@@H]2CN(Cc3ccsc3)C[C@H]2N1Cc1ccncc1,13.6%
23,O=C1NC2(CCN(Cc3cccs3)CC2)CC1c1ccncc1 (stereo not given),10.2%
